US20210300943A1, “OGA INHIBITOR COMPOUNDS” (Janssen Pharmaceutica NV, priority 2018, published 2021)

What was measured:
[1] = biological target: T1, recombinant human Meningioma Expressed Antigen 5 (MGEA5), also referred to as O-GlcNAcase (OGA) (Homo sapiens, UniProt O60502); experiment: OGA biochemical assay (inhibition of FM-GlcNAc hydrolysis, fluorescence); settings: for Emax: maximal effect, read-out: Enzymatic Emax (%); for IC50: read-out: Enzymatic hOGA, pIC50 (converted)
T1 construct: Full length OGA enzyme was purchased at OnGene (cat #TP322411); purchased OnGene (so in the source)
T1 sequence (O60502 1-916): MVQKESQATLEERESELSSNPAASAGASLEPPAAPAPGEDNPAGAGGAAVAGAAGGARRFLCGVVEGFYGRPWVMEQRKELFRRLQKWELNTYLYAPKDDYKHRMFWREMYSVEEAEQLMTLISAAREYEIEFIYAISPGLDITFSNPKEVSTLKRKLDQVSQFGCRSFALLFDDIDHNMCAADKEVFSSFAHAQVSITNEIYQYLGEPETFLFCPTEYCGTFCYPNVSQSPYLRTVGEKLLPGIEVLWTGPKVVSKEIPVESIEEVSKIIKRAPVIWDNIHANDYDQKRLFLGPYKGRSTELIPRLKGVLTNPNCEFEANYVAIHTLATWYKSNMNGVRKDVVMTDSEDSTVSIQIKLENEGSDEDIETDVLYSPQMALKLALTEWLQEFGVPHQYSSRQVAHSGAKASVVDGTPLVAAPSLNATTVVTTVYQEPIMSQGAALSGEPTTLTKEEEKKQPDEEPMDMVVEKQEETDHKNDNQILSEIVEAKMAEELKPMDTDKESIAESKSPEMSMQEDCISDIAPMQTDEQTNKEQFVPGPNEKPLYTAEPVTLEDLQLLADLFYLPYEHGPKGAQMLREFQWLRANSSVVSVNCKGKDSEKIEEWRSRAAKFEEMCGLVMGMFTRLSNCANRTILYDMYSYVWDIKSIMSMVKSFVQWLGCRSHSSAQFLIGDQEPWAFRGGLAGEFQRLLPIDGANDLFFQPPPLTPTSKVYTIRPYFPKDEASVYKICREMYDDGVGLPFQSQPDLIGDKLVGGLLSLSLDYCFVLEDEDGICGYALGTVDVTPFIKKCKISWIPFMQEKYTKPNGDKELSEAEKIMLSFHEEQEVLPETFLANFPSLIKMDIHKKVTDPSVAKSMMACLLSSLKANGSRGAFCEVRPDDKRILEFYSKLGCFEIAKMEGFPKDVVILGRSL
Source text: The assay is based on the inhibition of the hydrolysis of fluorescein mono-β-D-N-Acetyl-Glucosamine (FM-GlcNAc) (Mariappa et al. 2015, Biochem J 470:255) by the recombinant human Meningioma Expressed Antigen 5 (MGEA5), also referred to as O-GlcNAcase (OGA). The hydrolysis FM-GlcNAc (Marker Gene technologies, cat #M1485) results in the formation of β-D-N-glucosamineacetate and fluorescein. The fluorescence of the latter can be measured at excitation wavelength 485 nm and emission wavelength 538 nm. An increase in enzyme activity results in an increase in fluorescence signal. Full length OGA enzyme was purchased at OnGene (cat #TP322411). The enzyme was stored in 25 mM Tris.HCl, pH 7.3, 100 mM glycine, 10% glycerol at −20° C. Thiamet G and GlcNAcStatin were tested as reference compounds (Yuzwa et al. 2008 Nature Chemical Biology 4:483; Yuzwa et al. 2012 Nature Chemical Biology 8:393). The assay was performed in 200 mM Citrate/phosphate buffer supplemented with 0.005% Tween-20. 35.6 g Na2HPO42H2O (Sigma, #C0759) were dissolved in 1 L water to obtain a 200 mM solution. 19.2 g citric acid (Merck, #1.06580) was dissolved in 1 L water to obtain a 100 mM solution. pH of the sodiumphosphate solution was adjusted with the citric acid solution to 7.2. The buffer to stop the reaction consists of a 500 mM Carbonate buffer, pH 11.0. 734 mg FM-GlcNAc were dissolved in 5.48 mL DMSO to obtain a 250 mM solution and was stored at −20° C. OGA was used at a 2 nM concentration and FM-GlcNAc at a 100 uM final concentration. Dilutions were prepared in assay buffer.
50 nl of a compound dissolved in DMSO was dispensed on Black Proxiplate TM 384 Plus Assay plates (Perkin Elmer, #6008269) and 3 μl fl-OGA enzyme mix added subsequently. Plates were pre-incubated for 60 min at room temperature and then 2 μl FM-GlcNAc substrate mix added. […] Plates were briefly centrifuged for 1 min at 1000 rpm and incubate at room temperature for 6 h. To stop the reaction 5 μl STOP buffer were added and plates centrifuge again 1 min at 1000 rpm. Fluorescence was quantified in the Thermo Scientific Fluoroskan Ascent or the PerkinElmer EnVision with excitation wavelength 485 nm and emission wavelength 538 nm.
For analysis a best-fit curve is fitted by a minimum sum of squares method. From this an IC50 value and Hill coefficient was obtained. High control (no inhibitor) and low control (saturating concentrations of standard inhibitor) were used to define the minimum and maximum values.

OGA = biological target: T2, OGA (Homo sapiens, UniProt O60502); experiment: OGA cellular assay (ICC detection of O-GlcNAcylated proteins in HEK293 cells inducible for P301L mutant human Tau); assay type: cell-based; settings: for Emax: HEK293, HEK293 cells inducible for P301L mutant human Tau, maximal effect, Thiamet G 200 uM as maximum; for EC50: HEK293 cells inducible for P301L mutant human Tau, 6 hours incubation, read-out: Cellular hOGA, pEC50 (converted)
T2 construct: endogenous in cells; host or cells: HEK293 cells inducible for P301L mutant human Tau (2N4R)
T2 sequence (O60502 1-916): T1 sequence (O60502 1-916)
Method: HEK293 cells inducible for P301L mutant human Tau (isoform 2N4R) were established at Janssen. Thiamet-G was used for both plate validation (high control) and as reference compound (reference EC50 assay validation). OGA inhibition is evaluated through the immunocytochemical (ICC) detection of O-GlcNAcylated proteins by the use of a monoclonal antibody (CTD110.6; Cell Signaling, #9875) detecting 0-GlcNAcylated residues as previously described (Dorfmueller et al. 2010 Chemistry & biology, 17:1250). Inhibition of OGA will result in an increase of O-GlcNAcylated protein levels resulting in an increased signal in the experiment. Cell nuclei are stained with Hoechst to give a cell culture quality control and a rough estimate of immediate compounds toxicity, if any. ICC pictures are imaged with a Perkin Elmer Opera Phenix plate microscope and quantified with the provided software Perkin Elmer Harmony 4.1.
Cells were propagated in DMEM high Glucose (Sigma, #D5796) following standard procedures. 2 days before the cell assay cells are split, counted and seeded in Poly-D-Lysine (PDL) coated 96-wells (Greiner, #655946) plate at a cell density of 12,000 cells per cm^2 (4,000 cells per well) in 100 μl of Assay Medium (Low Glucose medium is used to reduce basal levels of GlcNAcylation) (Park et al. 2014 The Journal of biological chemistry 289:13519). At the day of compound test medium from assay plates was removed and replenished with 90 μl of fresh Assay Medium. 10 μl of compounds at a 10 fold final concentration were added to the wells. Plates were centrifuged shortly before incubation in the cell incubator for 6 hours. DMSO concentration was set to 0.2%. Medium is discarded by applying vacuum. For staining of cells medium was removed and cells washed once with 100 μl D-PBS (Sigma, #D8537). From next step onwards unless other stated assay volume was always 50 μl and incubation was performed without agitation and at room temperature. Cells were fixed in 50 μl of a 4% paraformaldehyde (PFA, Alpha aesar, #043368) PBS solution for 15 minutes at room temperature. […] Before analysis samples were washed 2 times manually for 5 minutes in ICC base buffer.
Imaging is performed using Perkin Elmer Phenix Opera using a water 20× objective and recording 9 fields per well. Intensity readout at 488 nm is used as a measure of O-GlcNAcylation level of total proteins in wells. To assess potential toxicity of compounds nuclei were counted using the Hoechst staining. IC50-values are calculated using parametric non-linear regression model fitting. As a maximum inhibition Thiamet G at a 200 uM concentration is present on each plate. In addition, a concentration response of Thiamet G is calculated on each plate.

| Emax [1] [%] | IC50 [1] [nM] | Emax (OGA) [%] | EC50 (OGA) [nM] | Structure (SMILES) |
| --- | --- | --- | --- | --- |
| 103 | 3.98 | 81 | 15.8 | Cc1cc(C[C@H]2CCCN(C(C)c3ccc4c(c3)OCC4)C2)cc(C)n1 (mixture of isomers) [Product 47] |
| 101 | 7.94 | 69 | 31.6 | COc1cc(C[C@H]2CCCN(C(C)c3ccc4c(n3)OCCO4)C2)cc(C)n1 (mixture of isomers) [Product 63] |
| 102 | 12.6 | 90 | 50.1 | Cc1cc(C[C@H]2CCCN(C(C)c3ccc4c(n3)OCCO4)C2)cc(C(F)(F)F)n1 (mixture of isomers) [Product 69] |
| 98 | 12.6 | 29 | 316 | Cc1cc(CO[C@H]2CCCN([C@H](C)c3ccc4c(n3)OCCO4)C2)cc(C)n1 (mixture of isomers) [Product 111] |
| 100 | 15.8 | 66 | 158 | Cc1cc(OC[C@H]2CCCN([C@H](C)c3ccc4c(n3)OCCO4)C2)nc(C)n1 (mixture of isomers) [Product 114] |
| 101 | 3.16 | 91 | 20 | Cc1cc(C[C@H]2CCCN(C(C)c3ccc4c(n3)OCCO4)C2)cc(C)n1 (mixture of isomers) [Product 44] |
| 103 | 10 | 85 | 39.8 | Cc1cc(C[C@H]2CCCN(C(C)c3cnc4c(c3)OCCN4)C2)cc(C)n1 (mixture of isomers) [Product 50] |

More lines, now with the values behind:

| Structure (SMILES) | Emax [1] [%] | IC50 [1] [nM] | Emax (OGA) [%] | EC50 (OGA) [nM] |
| --- | --- | --- | --- | --- |
| Cc1cc(OC[C@H]2CCCN(C(C)c3ccc4c(n3)OCCO4)C2)cc(C)n1 (mixture of isomers) [Product 19] | 102 | 7.94 | 86 | 31.6 |
| Cc1cc(C[C@H]2CCCN(C(C)c3ccc4c(c3)OCCN4C)C2)cc(C)n1 (mixture of isomers) [Product 49] | 103 | 126 | – | > 1000 |
| Cc1cc(C[C@H]2CCCN(C(C)c3cnc4c(c3)OCCN4C)C2)cc(C)n1 (mixture of isomers) [Product 56] | 102 | 15.8 | 78 | 316 |
| Cc1cc(C[C@H]2CCCN(C(C)c3cnc4c(c3)OCC4)C2)cc(C)n1 (mixture of isomers) [Product 57] | 101 | 12.6 | 78 | 158 |
| Cc1cc(C[C@H]2CCCN(C(C)c3ccc4c(n3)OCC(=O)N4)C2)cc(C)n1 (mixture of isomers) [Product 59] | 102 | 126 | 23 | > 1000 |
| Cc1cc(C[C@H]2CCCN(C(C)c3ccc4c(n3)OCCO4)C2)cc(OC(F)(F)F)n1 (mixture of isomers) [Product 67] | 102 | 7.94 | 89 | 79.4 |
| Cc1cc(C[C@H]2CCCN(C(C)c3cc4c(cc3F)OCCO4)C2)cc(C(F)(F)F)n1 (mixture of isomers) [Product 68] | 102 | 6.31 | 79 | 39.8 |
| Cc1cc(CO[C@@H]2CCCN([C@H](C)c3ccc4c(n3)OCCO4)C2)cc(C)n1 (mixture of isomers) [Product 112] | 98 | 200 | 8 | > 1000 |
| Cc1cc(C2CCCN([C@H](C)c3ccc4c(n3)OCCO4)C2)nc(C)n1 (mixture of isomers) [Product 113] | 100 | 100 | 55 | 794 |
| Cc1cc([C@H]2CCCN([C@@H](C)c3ccc4c(c3)OCC4)C2)cc(C)n1 (racemic) [Product 4] | 103 | 5.01 | 70 | 20 |
| COc1cc(NC[C@H]2CCCN(C(C)c3ccc4c(n3)OCCO4)C2)cc(C)n1 (mixture of isomers) [Product 24] | 102 | 7.94 | 69 | 7.94 |
| Cc1cc(C[C@H]2CCCN(C(C)c3cc4c(cc3F)OCCO4)C2)cc(C)n1 (mixture of isomers) [Product 40] | 101 | 2 | 96 | 15.8 |
| COc1cc(OC[C@H]2CCCN([C@H](C)c3ccc4c(n3)OCCO4)C2)cc(C)n1 (racemic) [Product 110] | 102 | 12.6 | 68 | 316 |
| Cc1cc(OC[C@H]2CCCN(C(C)c3nc4c(cc3F)CCO4)C2)cc(C)n1 (mixture of isomers) [Product 178] | 95 | 2.51 | 104 | 2.51 |
